Laboratory results reported in PMC4822253, “Inhibition of BMP and of TGFβ receptors downregulates expression of XIAP and TAK1 leading to lung cancer cell death” (Molecular Cancer, 2016).

Assays:
[1] = molecular target: T1, TGFbetaR2 (Homo sapiens, UniProt P37173); assay: In vitro kinase IC50; type: biochemical; details: kinase activity; ATP 10 Micromolar; 10-point, duplicate
T1 construct: purchased Reaction Biology Corporation (Malvern, PA)
Text: (§1) The ATP concentration was 10 Micromolar.

[2] = molecular target: T2, BMPRII (Homo sapiens, UniProt Q13873); assay: In vitro kinase IC50; type: biochemical; details: kinase activity; ATP 10 Micromolar; 10-point, duplicate
T2 construct: purchased Reaction Biology Corporation (Malvern, PA)
T2 sequence (Q13873 27-1038): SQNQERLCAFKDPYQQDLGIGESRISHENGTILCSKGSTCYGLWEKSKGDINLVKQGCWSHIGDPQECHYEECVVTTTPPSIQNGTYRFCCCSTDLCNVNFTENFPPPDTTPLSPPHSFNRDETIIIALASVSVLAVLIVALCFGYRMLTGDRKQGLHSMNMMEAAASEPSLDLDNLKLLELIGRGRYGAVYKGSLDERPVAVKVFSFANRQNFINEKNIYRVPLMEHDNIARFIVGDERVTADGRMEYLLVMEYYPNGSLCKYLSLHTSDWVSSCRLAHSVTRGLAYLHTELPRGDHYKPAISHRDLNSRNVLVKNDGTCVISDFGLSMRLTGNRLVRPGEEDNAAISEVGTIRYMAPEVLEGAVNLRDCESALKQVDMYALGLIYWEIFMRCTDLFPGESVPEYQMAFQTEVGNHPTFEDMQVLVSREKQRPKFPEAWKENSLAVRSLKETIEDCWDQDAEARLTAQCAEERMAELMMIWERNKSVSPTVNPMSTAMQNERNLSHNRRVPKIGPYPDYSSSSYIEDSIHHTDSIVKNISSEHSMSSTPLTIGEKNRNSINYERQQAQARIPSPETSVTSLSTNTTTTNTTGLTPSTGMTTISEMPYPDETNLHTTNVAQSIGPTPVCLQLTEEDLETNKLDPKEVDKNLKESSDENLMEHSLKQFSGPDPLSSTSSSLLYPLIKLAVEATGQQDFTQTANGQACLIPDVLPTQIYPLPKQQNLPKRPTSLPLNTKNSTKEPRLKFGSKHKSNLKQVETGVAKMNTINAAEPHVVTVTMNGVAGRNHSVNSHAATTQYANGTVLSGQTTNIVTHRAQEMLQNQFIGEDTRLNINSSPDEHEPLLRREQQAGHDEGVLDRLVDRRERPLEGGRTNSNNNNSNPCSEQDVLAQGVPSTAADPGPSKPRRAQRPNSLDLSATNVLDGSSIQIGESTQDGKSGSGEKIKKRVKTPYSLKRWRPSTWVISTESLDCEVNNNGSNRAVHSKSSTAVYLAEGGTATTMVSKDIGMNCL
Text: as §1

[3] = system: lung cancer cell lines H157, A549, H1299, H727, U1752; assay: Cell counts in panel of lung cancer cell lines; type: cell-based; details: 1 μM; 7 days; percent of vehicle control
Experimental: Cells were plated into 6 well plates at 10^5 cells per well and treated with 1 μM DMSO or antagonist for 7 days. The cells were detached with trypsin, stained with trypan blue, and the number of live cells counted using a hemocytometer.
Additional file 1: Figure S1. […] Data is depicted as percent of vehicle control. Experiments were performed 3 times. (TIF 749 kb) Additional file 2: Figure S2. […] Non-specific band from the same Western blot was used as a loading control. Experiments performed at least 3 times. (TIF 2680 kb) Additional file 3: Figure S3. Pharmacokinetics of DMH2. […] (TIF 1187 kb) Additional file 4: Figure S4. […] (A-B) Western blot of tumor xenografts treated with BMP inhibitors for 24 h and 9 days. […] (E-G) Data depict the mean as the percent of control. Experiments were performed at least 3 times. (TIF 9413 kb) Additional file 5: Figure S5. […] The data represents the mean of at least 4 experiments. (TIF 359 kb) Additional file 6: Figure S6. […] The studies represent the mean of at least 3 independent experiments. […] (TIF 2411 kb)

[4] = system: lung cancer cell lines H157, A549, H1299, H727, U1752; assay: Western blot of Id1 in panel of lung cancer cell lines; type: cell-based; details: 1 μM; 48 h; all cell lines of the panel
Experimental: Total cellular protein was prepared using RIPA buffer containing a protease inhibitor cocktail and protein concentration was measured using the BCA assay as described. In brief, protein was analyzed by SDS-PAGE, transferred to nitrocellulose (Schleicher and Schuell, Keene, NH). After blocking, the blots were incubated overnight at 4 °C with the appropriate primary antibody in Tris-buffered saline with 1 % Tween (TBST) and 5 % BSA. Secondary antibodies were applied for 1 h at room temperature. Specific proteins were detected using the enhanced chemiluminescence system (Amersham, Arlington Heights, IL). The primary antibodies that were used were rabbit monoclonal anti-pSmad 1/5, rabbit monoclonal anti-pSmad2, rabbit monoclonal anti-Smad2, rabbit monoclonal anti-pTAK1, rabbit monoclonal XIAP, rabbit anti-monoclonal p-p65, rabbit monoclonal anti-activated caspase-3, rabbit polyclonal anti-BMPRII, and rabbit monoclonal anti-EGR-1 (Cell signaling Technology, Danvers MA), Rabbit monoclonal anti-TAK1 (Invitrogen, Grand Island NY), rabbit anti-actin, an affinity isolated antigen specific antibody (Sigma, Saint Louis, MO), rabbit monoclonal anti-Id1 and rabbit monoclonal anti-Id3 (Calbioreagents, San Mateo, CA), rabbit polyclonal anti-GAPDH (Sigma, St. Louis, MO) and rabbit polyclonal pMEK-1/2 (Cell Signaling, Danvers MA).
Additional file 1: Figure S1. […]

[5] = molecular target: T3, Alk2/ACVRR1 (Homo sapiens, UniProt Q04771); details: read-out: IC50 Alk2/ACVRR1; kinase activity; ATP 10 Micromolar; 10-point, duplicate
T3 sequence (Q04771 21-509): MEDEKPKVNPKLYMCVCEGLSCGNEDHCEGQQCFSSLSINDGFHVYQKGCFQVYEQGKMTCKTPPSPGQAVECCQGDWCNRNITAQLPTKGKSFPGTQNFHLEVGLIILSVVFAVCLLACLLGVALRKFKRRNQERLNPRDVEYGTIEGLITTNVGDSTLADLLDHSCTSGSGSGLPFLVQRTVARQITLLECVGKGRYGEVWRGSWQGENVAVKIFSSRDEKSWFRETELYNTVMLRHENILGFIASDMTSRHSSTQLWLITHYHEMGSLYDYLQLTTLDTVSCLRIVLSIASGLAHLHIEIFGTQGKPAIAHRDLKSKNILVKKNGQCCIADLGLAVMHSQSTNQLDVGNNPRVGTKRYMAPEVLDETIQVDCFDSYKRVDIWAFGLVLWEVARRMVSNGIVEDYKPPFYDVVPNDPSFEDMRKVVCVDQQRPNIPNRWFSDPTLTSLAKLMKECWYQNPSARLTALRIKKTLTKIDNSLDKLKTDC
Experimental: (§2) This was a 10-point assay starting from 100 μM to 100 nM performed in duplicate. The ATP concentration was 10 Micromolar.

[6] = molecular target: Alk3/BMPR1A (Homo sapiens, UniProt P36894); details: read-out: IC50 Alk3/BMPR1A; kinase activity; ATP 10 Micromolar; 10-point, duplicate
Experimental: as §2

T1 sequence (P37173 23-567): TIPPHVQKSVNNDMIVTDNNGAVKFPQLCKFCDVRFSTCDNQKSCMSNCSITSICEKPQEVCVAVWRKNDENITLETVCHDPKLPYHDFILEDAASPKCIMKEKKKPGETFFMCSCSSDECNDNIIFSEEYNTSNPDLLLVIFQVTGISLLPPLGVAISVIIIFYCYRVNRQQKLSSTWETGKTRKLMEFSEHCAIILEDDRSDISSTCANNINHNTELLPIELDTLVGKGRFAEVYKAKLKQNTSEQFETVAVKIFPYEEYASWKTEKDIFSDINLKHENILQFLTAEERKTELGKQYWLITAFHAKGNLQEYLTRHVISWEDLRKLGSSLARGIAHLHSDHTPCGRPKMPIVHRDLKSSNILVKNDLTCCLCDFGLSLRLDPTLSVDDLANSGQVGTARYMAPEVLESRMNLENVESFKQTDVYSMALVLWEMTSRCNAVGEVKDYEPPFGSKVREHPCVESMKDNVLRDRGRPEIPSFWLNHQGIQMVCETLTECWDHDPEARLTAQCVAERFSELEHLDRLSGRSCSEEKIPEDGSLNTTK
Sequence of Alk3/BMPR1A (P36894 24-532): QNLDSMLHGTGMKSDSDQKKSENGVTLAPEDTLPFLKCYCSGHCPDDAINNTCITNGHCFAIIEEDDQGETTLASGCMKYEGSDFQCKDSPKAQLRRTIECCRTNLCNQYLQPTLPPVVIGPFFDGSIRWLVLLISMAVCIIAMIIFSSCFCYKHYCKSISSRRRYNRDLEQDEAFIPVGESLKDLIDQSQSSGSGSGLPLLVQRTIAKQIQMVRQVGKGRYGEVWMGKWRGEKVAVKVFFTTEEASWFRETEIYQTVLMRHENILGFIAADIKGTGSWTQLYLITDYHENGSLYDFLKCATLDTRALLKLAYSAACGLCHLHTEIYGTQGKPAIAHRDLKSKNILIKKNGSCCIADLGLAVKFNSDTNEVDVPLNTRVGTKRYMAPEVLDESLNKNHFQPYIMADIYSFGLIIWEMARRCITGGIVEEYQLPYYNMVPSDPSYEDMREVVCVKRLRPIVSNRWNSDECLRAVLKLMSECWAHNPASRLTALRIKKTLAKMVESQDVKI

c1ccc2c(-c3cnn4cc(-c5ccc(OCCN6CCOCC6)cc5)cnc34)ccnc2c1 [DMH2]
IC50 [1]: 0.193 µM
IC50 [2]: 7.95 µM
growth (cell counts) [3]: inhibited growth in all of the cell lines
expression of Id1 [4]: decreased
IC50 [5]: 0.023 µM
IC50 [6]: 0.092 µM
